Values of other authors as cited in patent US9226984B2, “Entrapment of radionuclides in nanoparticle compositions” (Technical University of Denmark and Rigshospitalet, priority 2010, dated 2016).

Details: ionophore-assisted loading

For `Oc1cccc2cccnc12` [oxine, 8-hydroxyquinoline], the “64Cu2+ retention of liposomes loaded with the ionophore” value is listed as “unstable liposomes”.
